{
  "source": "patent US20040102622A1",
  "about": "“Modulation of hepatocyte growth factor receptor expression” (Isis Pharmaceuticals Inc., priority 2002, published 2004)",
  "test_system": "human hepatocyte growth factor receptor mRNA",
  "data": [
    {"substance": "ISIS 155132: 2′-MOE gapmer, phosphorothioate backbone, sequence gattccctcggtcagaaatt (antisense GATTCCCTCGGTCAGAAATT; all phosphorothioate, sugars by position and methylation of C not given here; 2'-MOE gapmer)", "values": [
      {"measurement": "inhibition of human hepatocyte growth factor receptor expression", "result": "at least 35%"}
    ]}
  ]
}
